# In patent US5624923A, “Tricyclic diazepine vasopressin antagonists and oxytocin antagonists” (priority 1995, dated 1997):
# pIC50: −log10 of the molar value.
# What was measured:
# oxytocin receptors = target: T1, oxytocin receptors (Rattus norvegicus, UniProt P70536); assay: Oxytocin Receptor Binding; conditions: for inhibition at 10 µM: [3H]oxytocin
# T1 construct: The uteri are dissected out, cleaned of fat and connective tissues; from tissue; host or cells: uterus of DES-treated female Sprague-Dawley rats
# T1 sequence (P70536 1-388): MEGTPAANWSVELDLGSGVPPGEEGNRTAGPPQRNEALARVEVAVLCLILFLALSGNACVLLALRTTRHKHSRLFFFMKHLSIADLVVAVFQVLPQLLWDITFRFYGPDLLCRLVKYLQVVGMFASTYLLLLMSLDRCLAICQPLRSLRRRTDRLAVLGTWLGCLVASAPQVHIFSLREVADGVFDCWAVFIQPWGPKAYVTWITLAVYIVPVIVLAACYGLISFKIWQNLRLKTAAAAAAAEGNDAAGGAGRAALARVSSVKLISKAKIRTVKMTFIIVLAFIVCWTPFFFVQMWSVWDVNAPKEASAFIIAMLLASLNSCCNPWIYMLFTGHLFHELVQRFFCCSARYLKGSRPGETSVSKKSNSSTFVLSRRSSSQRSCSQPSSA
# Experimental: Oxytocin Receptor Binding
# Female Sprague-Dawley rats weighing approximately 200-250 g are injected intramuscularly (i.m.) with 0.3 mg/kg of body weight of diethylstilbestrol (DES). The rats are sacrificed 18 hours later under pentobarbital anesthesia. The uteri are dissected out, cleaned of fat and connective tissues and rinsed in 50 ml of normal saline. The tissue pooled from six rats is homogenized in 50 ml of […] Tris.HCl, containing 0.5 mM dithiothreitol and 1.0 mM EDTA, adjusted to pH 7.4, using a polytron at setting 6 with three passes of 10 sec each. The homogenate is passed through two (2) layers of cheesecloth and the filtrate centrifuged at 1000× g for 10 min. The clear supernatant is removed and recentrifuged at 165,000× g for 30 min. The resulting pellet containing the oxytocin receptors is resuspended in 50.0 mM Tris.HCl containing 5.0 mM MgCl2 at pH 7.4, to give a protein concentration of 2.5 mg/ml of tissue suspension. This preparation is used in subsequent binding assays with [^3 H]Oxytocin.
# Binding of 3,5-[^3 H]Oxytocin ([^3 H]OT) to its receptors is done in microtiter plates using [^3 H]OT, at various concentrations, in an assay buffer of 50.0 mM Tris.HCl, pH 7.4 and containing 5.0 mM MgCl2, and a mixture of protease inhibitors: BSA, 0.1 mg; aprotinin, 1.0 mg; 1,10-phenanthroline, 2.0 mg; […], 10.0 mg; and PMSF, 0.3 mg per 100 ml of buffer solution. Non-specific binding is determined in the presence of 1.0 uM unlabeled OT. The binding reaction is terminated after 60 min , at 22° C. by rapid filtration through glass fiber filters using a Brandel® cell harvester (Biomedical Research and Development Laboratories, Inc., Gaithersburg, Md.). Competition experiments are conducted at equilibrium using 1.0 nM [^3 H]OT and varying the concentration of the displacing agents. The concentrations of agent displacing 50% of [^3 H]OT at its sites (IC50) are calculated by a computer assisted LUNDON-2 program (LUNDON SOFTWARE INC., Ohio, USA).
# [1] = target: T2, Rat Kidney Medullary V2 Receptors (Rattus norvegicus, UniProt Q00788); assay: Binding Assay to Rat Kidney Medullary V2 Receptors; conditions: for pIC50: rat kidney medulla membranes, read-out: V2 IC50; for inhibition at 10 µM: rat
# T2 construct: Medullary tissues from rat kidneys are dissected out; from tissue; host or cells: rat kidney medulla membranes
# In short: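 Membranes were prepared from rat kidney medulla and stored in 50.0 mM Tris-HCl pH 7.4 with 0.2% BSA and 0.1 mM PMSF. Radioligand competition ran 120 min at bench temperature, with 1.0 μM unlabeled ligand defining nonspecific binding. Compounds were added in 50% DMSO; filtration, tritium scintillation counting, IC50 from competition analysis.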
# Rat Hepatic V1 Receptors = target: T3, Rat Hepatic V1 Receptors (Rattus norvegicus, UniProt P30560); assay: Binding Assay to Rat Hepatic V1 Receptors; conditions: for pIC50: rat liver membranes, read-out: V1 IC50; for inhibition at 10 µM: 2 h, rat
# T3 construct: Rat liver plasma membranes expressing the vasopressin V1 receptor subtypes; from tissue; host or cells: rat liver plasma membranes
# Vasopressin V1 = Vasopressin V1 Antagonist Activity in Conscious Rats (vasopressin vasopressor response); assay type: in vivo, rat; design: Average Change: unit not given here; conditions: for % Inhibition / Average Change: SHR
# In short: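 Conscious rats are restrained supine, and under local 2% procaine a PE 10/20 cannula is passed through the ventral caudal tail artery into the lower abdominal aorta. The caudal vein is cannulated for intravenous dosing. Blood pressure is recorded with a Statham P23Db transducer, and vasopressin injections are repeated after compound dosing. Percent antagonism is calculated against the pre-drug vasopressor response taken as 100%.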
# Vasopressin V2 = Vasopressin V2 Antagonist Activity in Conscious Hydrated Rats; assay type: in vivo, rat; conditions: AVP 0.4 μg/kg i.p.
# In short: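 Four-hour urine output, osmolality and electrolytes (Na+, K+, Cl−) recorded in water-loaded rats (30 mL/kg deionized water orally) given AVP i.p. at 0.4 μg/kg. Test compounds were given orally at 0.1–100 mg/kg 1 h before AVP; 2–4 rats per compound.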
# [2] = 10 mg/kg i.v., VAS 0.01 i.u./kg, 30 min
# [3] = 10 mg/kg i.v., VAS 0.02 i.u./kg, 30 min
# [4] = 20 mg/kg i.v., VAS 0.01 i.u./kg, 60 min
# [5] = 20 mg/kg i.v., VAS 0.01 i.u./kg, 90 min
# [6] = 20 mg/kg i.v., VAS 0.01 i.u./kg, 120 min
# [7] = 20 mg/kg i.v., VAS 0.01 i.u./kg, 180 min
# [8] = 20 mg/kg i.v., VAS 0.01 i.u./kg, 240 min
# [9] = 20 mg/kg i.v., VAS 0.01 i.u./kg, 300 min
# [10] = 20 mg/kg i.v., VAS 0.02 i.u./kg, 60 min
# [11] = 20 mg/kg i.v., VAS 0.02 i.u./kg, 90 min
# [12] = 20 mg/kg i.v., VAS 0.02 i.u./kg, 120 min
# [13] = 20 mg/kg i.v., VAS 0.02 i.u./kg, 180 min
# [14] = 20 mg/kg i.v., VAS 0.02 i.u./kg, 240 min
# [15] = 20 mg/kg i.v., VAS 0.02 i.u./kg, 300 min
# [16] = 10 mg/kg i.v., VAS 0.01 i.u./kg, 60 min
# [17] = 10 mg/kg i.v., VAS 0.01 i.u./kg, 90 min
# [18] = 10 mg/kg i.v., VAS 0.01 i.u./kg, 120 min
# [19] = 10 mg/kg i.v., VAS 0.01 i.u./kg, 180 min
# [20] = 10 mg/kg i.v., VAS 0.01 i.u./kg, 240 min
# [21] = 10 mg/kg i.v., VAS 0.01 i.u./kg, 300 min
# [22] = 10 mg/kg i.v., VAS 0.02 i.u./kg, 60 min
# [23] = 10 mg/kg i.v., VAS 0.02 i.u./kg, 90 min
# [24] = 10 mg/kg i.v., VAS 0.02 i.u./kg, 120 min
# [25] = 10 mg/kg i.v., VAS 0.02 i.u./kg, 180 min
# [26] = 10 mg/kg i.v., VAS 0.02 i.u./kg, 240 min
# [27] = 10 mg/kg i.v., VAS 0.02 i.u./kg, 300 min
# T2 sequence (Q00788 whole entry): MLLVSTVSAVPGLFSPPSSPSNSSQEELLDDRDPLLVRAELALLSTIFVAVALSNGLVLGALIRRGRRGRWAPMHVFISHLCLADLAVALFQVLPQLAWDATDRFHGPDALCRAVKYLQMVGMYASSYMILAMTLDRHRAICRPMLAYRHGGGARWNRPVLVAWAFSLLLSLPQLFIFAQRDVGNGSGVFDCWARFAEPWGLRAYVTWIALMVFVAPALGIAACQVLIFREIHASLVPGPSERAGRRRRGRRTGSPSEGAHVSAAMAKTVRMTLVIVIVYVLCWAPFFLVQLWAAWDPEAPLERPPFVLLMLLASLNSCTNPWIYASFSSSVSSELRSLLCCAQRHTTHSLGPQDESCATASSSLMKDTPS
# T3 sequence (P30560 whole entry): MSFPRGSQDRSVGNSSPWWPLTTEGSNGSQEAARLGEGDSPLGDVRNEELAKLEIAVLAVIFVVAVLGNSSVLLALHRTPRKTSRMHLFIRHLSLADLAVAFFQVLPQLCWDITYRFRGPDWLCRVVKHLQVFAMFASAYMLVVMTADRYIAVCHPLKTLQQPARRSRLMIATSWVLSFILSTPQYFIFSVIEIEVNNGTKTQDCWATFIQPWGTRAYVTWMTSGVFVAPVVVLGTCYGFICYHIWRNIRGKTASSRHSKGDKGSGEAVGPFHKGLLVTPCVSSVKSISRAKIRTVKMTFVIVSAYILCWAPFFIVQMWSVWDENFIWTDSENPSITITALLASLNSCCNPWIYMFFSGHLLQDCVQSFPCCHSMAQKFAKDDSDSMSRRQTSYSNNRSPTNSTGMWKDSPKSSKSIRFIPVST
smiles,measurement,setting,value
"O=C(Nc1ccc(C(=O)N2Cc3ccc(CN4CCOCC4)n3Cc3ccccc32)cc1)c1ccc(Cl)cc1Cl [Example 666, N-[4-[[3-(4-morpholinomethyl)-5H-pyrrolo[2,1-c][1,4]benzodiazepin-10(11H)-yl]carbonyl]phenyl]-2,4-dichlorobenzamide]",pIC50,oxytocin receptors; 1.0 nM [3H]oxytocin,5.68
same,inhibition at 10 µM,oxytocin receptors,83%
same,pIC50,[1],7.89
same,pIC50,Rat Hepatic V1 Receptors,6.80
"Cc1ccccc1C(=O)Nc1ccc(C(=O)N2CCc3nncn3-c3ccccc32)cc1 [Example 486, N-[4-[(4,5-Dihydro-6H-[1,2,4]triazolo[4,3-a][1,5]-benzodiazepin-6-yl)carbonyl)phenyl]-2-methylbenzoate]",inhibition at 10 µM,oxytocin receptors,18%
same,inhibition at 10 µM,[1],77%
same,inhibition at 10 µM,Rat Hepatic V1 Receptors,39%
"O=C(Nc1ccc(C(=O)N2Cc3cccn3Cc3ccccc32)cc1)c1sc2ccccc2c1Cl [Example 82, N-[4-(5H-Pyrrolo[2,1-c][1,4]benzodiazepin-10(11H)-ylcarbonyl)phenyl]-3-chlorobenzo[b]thiophene-2-carboxamide]",% Inhibition,Vasopressin V1; [2],24%
same,Average Change,Vasopressin V1; [2],36
same,% Inhibition,Vasopressin V1; [3],-5%
same,Average Change,Vasopressin V1; [3],54
same,% Inhibition,Vasopressin V1; [4],67%
same,Average Change,Vasopressin V1; [4],15.5
same,% Inhibition,Vasopressin V1; [5],51%
same,Average Change,Vasopressin V1; [5],23.5
same,% Inhibition,Vasopressin V1; [6],65%
same,Average Change,Vasopressin V1; [6],16.5
same,% Inhibition,Vasopressin V1; [7],61%
same,Average Change,Vasopressin V1; [7],18.5
same,% Inhibition,Vasopressin V1; [8],39%
same,Average Change,Vasopressin V1; [8],29
same,% Inhibition,Vasopressin V1; [9],33%
same,Average Change,Vasopressin V1; [9],32
same,% Inhibition,Vasopressin V1; [10],28%
same,Average Change,Vasopressin V1; [10],37
same,% Inhibition,Vasopressin V1; [11],53%
same,Average Change,Vasopressin V1; [11],24
same,% Inhibition,Vasopressin V1; [12],25%
same,Average Change,Vasopressin V1; [12],38.5
same,% Inhibition,Vasopressin V1; [13],16%
same,Average Change,Vasopressin V1; [13],43.5
same,% Inhibition,Vasopressin V1; [14],18%
same,Average Change,Vasopressin V1; [14],42
same,% Inhibition,Vasopressin V1; [15],-3%
same,Average Change,Vasopressin V1; [15],53
same,Osmolality,Vasopressin V2; 20 mg/kg orally,1300 mOsm/kg
same,Urine Volume,Vasopressin V2; 20 mg/kg orally,4.3 ml/4 hrs
same,inhibition at 10 µM,[1],71%
same,inhibition at 10 µM,Rat Hepatic V1 Receptors,23%
"O=C(Nc1ccc(C(=O)N2Cc3cccn3Cc3ccccc32)cc1)C1CCCCC1 [Example 358, N-[4-(5H-Pyrrolo[2,1-c][1,4]benzodiazepin-10(11)ylcarbonyl)phenyl]-cyclohexanecarboxamide]",% Inhibition,Vasopressin V1; [2],67%
same,Average Change,Vasopressin V1; [2],12
same,% Inhibition,Vasopressin V1; [16],64%
same,Average Change,Vasopressin V1; [16],13
same,% Inhibition,Vasopressin V1; [17],52%
same,Average Change,Vasopressin V1; [17],17.5
same,% Inhibition,Vasopressin V1; [18],78%
same,Average Change,Vasopressin V1; [18],8
same,% Inhibition,Vasopressin V1; [19],52%
same,Average Change,Vasopressin V1; [19],17.5
same,% Inhibition,Vasopressin V1; [20],67%
same,Average Change,Vasopressin V1; [20],12
same,% Inhibition,Vasopressin V1; [21],48%
same,Average Change,Vasopressin V1; [21],19
same,% Inhibition,Vasopressin V1; [3],39%
same,Average Change,Vasopressin V1; [3],24
same,% Inhibition,Vasopressin V1; [22],75%
same,Average Change,Vasopressin V1; [22],10
same,% Inhibition,Vasopressin V1; [23],72%
same,Average Change,Vasopressin V1; [23],11
same,% Inhibition,Vasopressin V1; [24],65%
same,Average Change,Vasopressin V1; [24],14
same,% Inhibition,Vasopressin V1; [25],63%
same,Average Change,Vasopressin V1; [25],14.5
same,% Inhibition,Vasopressin V1; [26],61%
same,Average Change,Vasopressin V1; [26],15.5
same,% Inhibition,Vasopressin V1; [27],59%
same,Average Change,Vasopressin V1; [27],16
same,Osmolality,Vasopressin V2; 30 mg/kg orally,875 mOsm/kg
same,Urine Volume,Vasopressin V2; 30 mg/kg orally,5.5 ml/4 hrs
same,pIC50,[1],7.80
same,pIC50,Rat Hepatic V1 Receptors,7.96
"Cc1cc(C(=O)N2Cc3cccn3Cc3ccccc32)ccc1NC(=O)c1ccc(Cl)cc1Cl [Example 99, N-[4-(5H-pyrrolo[2,1-c][1,4]-benzodiazepin-10(11H)-yl-carbonyl)-2-methylphenyl]-2,4-dichlorobenzamide]",Max. % Inhibition,Vasopressin V1; 10 mg/kg i.v.,76%
same,Time (of max. % inhibition),Vasopressin V1; 10 mg/kg i.v.,120 min
same,% Inhibition,Vasopressin V1; [2],74%
same,Average Change,Vasopressin V1; [2],9.5
same,% Inhibition,Vasopressin V1; [16],29%
same,Average Change,Vasopressin V1; [16],25.5
same,% Inhibition,Vasopressin V1; [17],47%
same,Average Change,Vasopressin V1; [17],19
same,% Inhibition,Vasopressin V1; [18],76%
same,Average Change,Vasopressin V1; [18],8.5
same,% Inhibition,Vasopressin V1; [19],68%
same,Average Change,Vasopressin V1; [19],11.5
same,% Inhibition,Vasopressin V1; [20],50%
same,Average Change,Vasopressin V1; [20],18
same,% Inhibition,Vasopressin V1; [21],44%
same,Average Change,Vasopressin V1; [21],20
same,% Inhibition,Vasopressin V1; [3],64%
same,Average Change,Vasopressin V1; [3],13
same,% Inhibition,Vasopressin V1; [22],72%
same,Average Change,Vasopressin V1; [22],10
same,% Inhibition,Vasopressin V1; [23],26%
same,Average Change,Vasopressin V1; [23],26.5
same,% Inhibition,Vasopressin V1; [24],53%
same,Average Change,Vasopressin V1; [24],17
same,% Inhibition,Vasopressin V1; [25],44%
same,Average Change,Vasopressin V1; [25],20
same,% Inhibition,Vasopressin V1; [26],40%
same,Average Change,Vasopressin V1; [26],21.5
same,% Inhibition,Vasopressin V1; [27],38%
same,Average Change,Vasopressin V1; [27],22.5
same,Osmolality,Vasopressin V2; 30 mg/kg orally,334 mOsm/kg
same,Urine Volume,Vasopressin V2; 30 mg/kg orally,15.2 ml/4 hrs
same,pIC50,[1],8.00
same,pIC50,Rat Hepatic V1 Receptors,7.57
"Cc1c(F)cccc1C(=O)Nc1ccc(C(=O)N2Cc3cccn3Cc3ccccc32)cc1 [Example 466, N-[4-(5H-pyrrolo[2,1-c][1,4]benzodiazepin-10(11H)-ylcarbonyl)phenyl]-3-fluoro-2-methylbenzamide]",Max. % Inhibition,Vasopressin V1; 30 mg/kg i.v.,94%
same,Time (of max. % inhibition),Vasopressin V1; 30 mg/kg i.v.,94 min
same,Osmolality,Vasopressin V2; 10 mg/kg orally,522 mOsm/kg
same,Urine Volume,Vasopressin V2; 10 mg/kg orally,14.1 ml/4 hrs
same,pIC50,[1],8.40
same,pIC50,Rat Hepatic V1 Receptors,7.59
